Legend:
[1] = target: T1, Poly [ADP-ribose] polymerase 1 (Homo sapiens, UniProt P09874); assay: Inhibition of PARP1 (unknown origin) incubated for 1 hr by ELISA analysis
MDA-MB-436 = assay: Antiproliferative activity against human MDA-MB-436 BRCA1-/- cells assessed as inhibition of cell growth incubated for 7 days by CCK-8 assay; type: functional, cell-based; details: MDA-MB-436, 168 h
CAPAN-1 [2] = assay: Antiproliferative activity against human CAPAN-1 BRCA2-/- cells assessed as inhibition of cell growth incubated for 7 days by CCK-8 assay; type: functional, cell-based; details: CAPAN-1, 168 h
[3] = Antiproliferative activity against human Talazoparib-resistant CAPAN-1 cells assessed as inhibition of cell growth incubated for 7 days by CCK-8 assay; type: functional, cell-based; details: CAPAN-1, 168 h
[4] = Selectivity ratio of IC50 for antiproliferative activity against human Talazoparib-resistant CAPAN-1 cells to IC50 for antiproliferative activity against human CAPAN-1 BRCA2-/- cells; type: functional
[5] = Selectivity ratio of IC50 for antiproliferative activity against human Olaparib-resistant CAPAN-1 cells to IC50 for antiproliferative activity against human CAPAN-1 BRCA2-/- cells; type: functional
[6] = Antiproliferative activity against human Simmiparib-resistant CAPAN-1 cells assessed as inhibition of cell growth incubated for 7 days by CCK-8 assay; type: functional, cell-based; details: CAPAN-1, 168 h
[7] = Selectivity ratio of IC50 for antiproliferative activity against human Simmiparib-resistant CAPAN-1 cells to IC50 for antiproliferative activity against human CAPAN-1 BRCA2-/- cells; type: functional
[8] = test system: Olaparib-resistant CAPAN-1; assay: Antiproliferative activity against human Olaparib-resistant CAPAN-1 cells assessed as inhibition of cell growth incubated for 7 days by CCK-8 assay; type: functional, cell-based; details: Olaparib-resistant CAPAN-1, 168 h
[9] = target: Voltage-gated inwardly rectifying potassium channel KCNH2 (Homo sapiens, UniProt Q12809); assay: Inhibition of hERG; type: toxicity
[10] = target: T1, Poly [ADP-ribose] polymerase 1; assay: Inhibition of PARP1 (unknown origin)
[11] = Cytotoxicity against Chinese hamster V-C8 BRCA2-/- cells assessed as reduction in cell viability; type: toxicity, cell-based, Cricetulus griseus
CAPAN-1 [12] = assay: Induction of apoptosis in human CAPAN-1 cells assessed as early apoptotic cells at 1 uM incubated for 48 hrs by Annexin-V/PI staining based flow cytometry analysis (reference value: 10.1%); type: functional
[13] = test system: Olaparib-resistant CAPAN-1; assay: Induction of apoptosis in human Olaparib-resistant CAPAN-1 cells assessed as early apoptotic cells at 1 uM incubated for 48 hrs by Annexin-V/PI staining based flow cytometry analysis (reference value: 8.50%); type: functional
CAPAN-1 [14] = assay: Induction of apoptosis in human CAPAN-1 cells assessed as late apoptotic cells at 1 uM incubated for 48 hrs by Annexin-V/PI staining based flow cytometry analysis (reference value: 4.95%); type: functional
[15] = test system: Olaparib-resistant CAPAN-1; assay: Induction of apoptosis in human Olaparib-resistant CAPAN-1 cells assessed as late apoptotic cells at 1 uM incubated for 48 hrs by Annexin-V/PI staining based flow cytometry analysis (reference value: 3.67%); type: functional

Chain of Voltage-gated inwardly rectifying potassium channel KCNH2 (Q12809 whole entry): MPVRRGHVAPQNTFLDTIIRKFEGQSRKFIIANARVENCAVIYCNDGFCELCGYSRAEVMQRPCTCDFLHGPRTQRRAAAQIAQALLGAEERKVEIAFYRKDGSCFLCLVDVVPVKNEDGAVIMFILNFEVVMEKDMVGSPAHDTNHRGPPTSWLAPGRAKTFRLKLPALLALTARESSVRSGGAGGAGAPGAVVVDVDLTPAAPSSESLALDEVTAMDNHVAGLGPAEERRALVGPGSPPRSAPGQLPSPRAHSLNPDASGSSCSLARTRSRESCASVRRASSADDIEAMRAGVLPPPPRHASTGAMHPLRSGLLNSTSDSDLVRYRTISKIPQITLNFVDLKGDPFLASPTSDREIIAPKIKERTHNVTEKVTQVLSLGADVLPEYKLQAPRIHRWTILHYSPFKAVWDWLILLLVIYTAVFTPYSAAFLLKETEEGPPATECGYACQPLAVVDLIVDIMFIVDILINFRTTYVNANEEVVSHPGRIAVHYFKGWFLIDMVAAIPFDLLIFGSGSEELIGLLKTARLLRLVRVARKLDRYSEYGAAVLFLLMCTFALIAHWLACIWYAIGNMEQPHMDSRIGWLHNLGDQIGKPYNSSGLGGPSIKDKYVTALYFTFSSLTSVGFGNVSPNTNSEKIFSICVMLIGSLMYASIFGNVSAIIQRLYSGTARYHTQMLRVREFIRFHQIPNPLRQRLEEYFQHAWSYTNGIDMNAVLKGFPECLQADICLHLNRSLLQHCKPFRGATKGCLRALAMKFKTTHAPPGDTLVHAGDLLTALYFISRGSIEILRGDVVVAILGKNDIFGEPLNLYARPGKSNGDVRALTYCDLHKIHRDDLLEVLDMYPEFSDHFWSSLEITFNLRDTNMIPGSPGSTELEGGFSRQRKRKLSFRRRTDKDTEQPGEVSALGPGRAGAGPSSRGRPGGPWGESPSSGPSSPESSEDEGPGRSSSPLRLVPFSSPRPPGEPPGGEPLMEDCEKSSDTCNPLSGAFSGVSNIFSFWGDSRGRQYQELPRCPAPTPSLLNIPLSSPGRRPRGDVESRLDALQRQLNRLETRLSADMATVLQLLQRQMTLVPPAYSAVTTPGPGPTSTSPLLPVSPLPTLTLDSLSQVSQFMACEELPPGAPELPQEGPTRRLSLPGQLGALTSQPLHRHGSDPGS
T1 sequence (P09874 whole entry): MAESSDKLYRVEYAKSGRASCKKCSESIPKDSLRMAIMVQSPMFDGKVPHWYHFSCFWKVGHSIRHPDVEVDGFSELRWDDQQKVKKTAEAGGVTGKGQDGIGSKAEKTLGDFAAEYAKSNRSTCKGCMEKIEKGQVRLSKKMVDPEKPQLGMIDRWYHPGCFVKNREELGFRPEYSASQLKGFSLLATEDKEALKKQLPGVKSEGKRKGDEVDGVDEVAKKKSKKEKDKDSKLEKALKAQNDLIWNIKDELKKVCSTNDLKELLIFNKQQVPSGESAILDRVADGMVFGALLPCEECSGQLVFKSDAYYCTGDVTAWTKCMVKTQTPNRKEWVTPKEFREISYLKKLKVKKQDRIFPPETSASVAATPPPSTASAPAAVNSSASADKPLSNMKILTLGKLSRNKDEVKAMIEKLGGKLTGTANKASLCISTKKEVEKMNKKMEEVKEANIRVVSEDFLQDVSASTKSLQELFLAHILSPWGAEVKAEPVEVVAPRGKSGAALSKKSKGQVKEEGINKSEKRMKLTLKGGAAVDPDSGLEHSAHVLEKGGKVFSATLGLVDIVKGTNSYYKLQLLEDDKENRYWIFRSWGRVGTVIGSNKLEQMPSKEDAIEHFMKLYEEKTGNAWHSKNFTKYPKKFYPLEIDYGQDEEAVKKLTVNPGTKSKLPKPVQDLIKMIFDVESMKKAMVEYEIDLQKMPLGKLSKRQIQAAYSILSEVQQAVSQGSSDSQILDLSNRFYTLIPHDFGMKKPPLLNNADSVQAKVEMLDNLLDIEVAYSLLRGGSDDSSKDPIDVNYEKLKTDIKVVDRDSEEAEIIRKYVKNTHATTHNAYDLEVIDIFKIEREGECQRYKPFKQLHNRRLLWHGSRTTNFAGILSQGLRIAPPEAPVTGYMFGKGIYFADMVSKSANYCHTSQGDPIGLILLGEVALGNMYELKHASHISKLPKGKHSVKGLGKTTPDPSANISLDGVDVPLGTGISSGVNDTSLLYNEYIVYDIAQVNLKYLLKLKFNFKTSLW

Structure (SMILES): Cc1c(Cc2ccc(F)c(C(=O)N3Cc4nnc(-c5ccccn5)n4C(C)C3)c2)n[nH]c(=O)c1C (stereo unspecified)
- IC50 [1]: 61.3 nM

Structure (SMILES): Cc1cc(Cc2ccc(F)c(C(=O)N3Cc4nnc(-c5ccccn5)n4C(C)C3)c2)n[nH]c1=O (stereo unspecified)
- IC50 [1]: > 1000 nM

Structure (SMILES): CC1CN(C(=O)c2cc(Cc3n[nH]c(=O)c4ccccc34)ccc2F)Cc2nnc(-c3ncc[nH]3)n21 (stereo unspecified)
- IC50 (MDA-MB-436): 1.9 nM
- IC50 (CAPAN-1 [2]): 13.7 nM
- IC50 [1]: 3.2 nM

Structure (SMILES): CC1c2ccccc2CCN1C(=O)c1cc(Cc2n[nH]c(=O)c3ccccc23)ccc1F (stereo unspecified)
- IC50 [1]: 42.8 nM

Structure (SMILES): CC1CN(C(=O)c2cc(Cc3ccc(=O)[nH]n3)ccc2F)Cc2nnc(-c3ccccn3)n21 (stereo unspecified)
- IC50 [1]: 947 nM

Structure (SMILES): CC1CN(C(=O)c2cc(Cc3n[nH]c(=O)c4ccccc34)ccc2F)Cc2nnc(CF)n21 (stereo unspecified)
- IC50 [1]: 11.9 nM

Structure (SMILES): CC(C)c1nnc2n1C(C)CN(C(=O)c1cc(Cc3n[nH]c(=O)c4ccccc34)ccc1F)C2 (stereo unspecified)
- IC50 [1]: 4.1 nM

Structure (SMILES): CC1CN(C(=O)c2cc(Cc3n[nH]c(=O)c4ccccc34)ccc2F)Cc2nnc(-c3ccsc3)n21 (stereo unspecified)
- IC50 (CAPAN-1 [2]): 7.3 nM
- IC50 [1]: 2 nM

Structure (SMILES): CC1CN(C(=O)c2cc(Cc3n[nH]c(=O)c4ccccc34)ccc2F)Cc2nnc(C(F)F)n21 (stereo unspecified)
- IC50 (MDA-MB-436): 2.9 nM
- IC50 (CAPAN-1 [2]): 29.5 nM
- IC50 [1]: 4.3 nM

Structure (SMILES): CC1CN(C(=O)c2cc(COc3ccccc3C(N)=O)ccc2F)Cc2nnc(-c3ccccn3)n21 (stereo unspecified)
- IC50 [1]: 230 nM

Structure (SMILES): CC1CN(C(=O)c2cc(Cn3c(=O)[nH]c(=O)c4ccccc43)ccc2F)Cc2nnc(-c3ccccn3)n21 (stereo unspecified)
- IC50 [1]: 4.6 nM

Structure (SMILES): CC1CN(C(=O)c2cc(Cc3n[nH]c(=O)c4ccccc34)ccc2F)Cc2nnc(CN(C)C)n21 (stereo unspecified)
- IC50 (CAPAN-1 [2]): 1430 nM
- IC50 [1]: 17.6 nM

Structure (SMILES): CC1CN(C(=O)c2cc(Cc3n[nH]c(=O)c4ccccc34)ccc2F)Cc2nnc(-c3cnccn3)n21 (stereo unspecified)
- IC50 (MDA-MB-436): < 0.3 nM
- IC50 (CAPAN-1 [2]): 7.3 nM
- IC50 [1]: 4 nM

Structure (SMILES): CC1CN(C(=O)c2cc(Cc3n[nH]c(=O)c4ccccc34)ccc2F)Cc2cnnn21 (stereo unspecified)
- IC50 [1]: > 1000 nM

Structure (SMILES): Cn1ncnc1[C@H]1c2n[nH]c(=O)c3cc(F)cc(c23)N[C@@H]1c1ccc(F)cc1 [TALAZOPARIB]
- IC50 [3]: 182 nM
- Ratio IC50 [4]: 666
- Ratio IC50 [5]: 1344
- IC50 [6]: 478 nM
- Ratio IC50 [7]: 1749
- IC50 [8]: 367 nM

Structure (SMILES): CC1CN(C(=O)c2cc(Cc3n[nH]c(=O)c4ccccc34)ccc2F)Cc2nnc(C(O)CO)n21 (stereo unspecified)
- IC50 [1]: 21 nM

Structure (SMILES): CC1CN(C(=O)c2cc(Cc3n[nH]c(=O)c4ccccc34)ccc2F)Cc2nnc(-c3ccccn3)n21 (stereo unspecified)
- IC50 [3]: 97 nM
- Ratio IC50 [4]: 55
- Ratio IC50 [5]: 165
- IC50 [6]: 437 nM
- IC50 (MDA-MB-436): < 0.3 nM
- IC50 [9]: 17400 nM
- Ratio IC50 [7]: 247
- IC50 (CAPAN-1 [2]): 1 nM
- IC50 [1]: 2 nM
- IC50 [8]: 292 nM

Structure (SMILES): CC1CN(C(=O)c2cc(Cc3n[nH]c(=O)c4ccccc34)ccc2F)Cc2nnc(C3COC(C)(C)O3)n21 (stereo unspecified)
- IC50 [1]: 25 nM

Structure (SMILES): CC1(C)Cn2nncc2CN1C(=O)c1cc(Cc2n[nH]c(=O)c3ccccc23)ccc1F
- IC50 [1]: > 1000 nM

Structure (SMILES): CC1(C)CN(C(=O)c2cc(Cc3n[nH]c(=O)c4ccccc34)ccc2F)Cc2cnnn21
- IC50 [1]: > 1000 nM

Structure (SMILES): CC1CN(C(=O)c2cc(Cc3n[nH]c(=O)c4ccccc34)ccc2F)Cc2nncn21 (stereo unspecified)
- IC50 [1]: 9.4 nM

Structure (SMILES): CC1CN(C(=O)c2cc(Cc3n[nH]c(=O)c4ccccc34)ccc2F)Cc2nnc(CO[Si](C)(C)C(C)(C)C)n21 (stereo unspecified)
- IC50 (CAPAN-1 [2]): 54.7 nM

Structure (SMILES): CC1CN(C(=O)c2cc(Cc3n[nH]c(=O)c4ccccc34)ccc2F)Cc2nnc(-c3nccn3C)n21 (stereo unspecified)
- IC50 [1]: 7.7 nM

Structure (SMILES): CC1c2cc(F)ccc2CCN1C(=O)c1cc(Cc2n[nH]c(=O)c3ccccc23)ccc1F (stereo unspecified)
- IC50 [1]: 70.7 nM

Structure (SMILES): CC1CN(C(=O)c2cc(Cc3n[nH]c(=O)c4ccccc34)ccc2F)Cc2nnc(C(F)(F)C(F)(F)F)n21 (stereo unspecified)
- IC50 [3]: 272 nM
- Ratio IC50 [4]: 91
- Ratio IC50 [5]: 590
- IC50 [6]: 1530 nM
- IC50 (MDA-MB-436): 1.9 nM
- IC50 [9]: 40000 nM
- Ratio IC50 [7]: 509
- IC50 (CAPAN-1 [2]): 2.5 nM
- IC50 [1]: 4.1 nM
- IC50 [8]: 1770 nM

Structure (SMILES): CC1CN(C(=O)c2cc(Cc3n[nH]c(=O)c4ccccc34)ccc2F)Cc2nnc(-c3ccco3)n21 (stereo unspecified)
- IC50 (MDA-MB-436): < 0.3 nM
- IC50 [1]: 1.7 nM

Structure (SMILES): CC1Cn2nncc2CN1C(=O)c1cc(Cc2n[nH]c(=O)c3ccccc23)ccc1F (stereo unspecified)
- IC50 [1]: > 1000 nM

Structure (SMILES): CC1CN(C(=O)c2cc(Cc3n[nH]c(=O)c4ccccc34)ccc2F)Cc2nnc(-c3c[nH]cn3)n21 (stereo unspecified)
- IC50 [1]: 13.1 nM

Structure (SMILES): CC1CN(C(=O)c2cc(Cc3n[nH]c(=O)c4ccccc34)ccc2F)Cc2nnc(C3CC3)n21 (stereo unspecified)
- IC50 (MDA-MB-436): 7.5 nM
- IC50 (CAPAN-1 [2]): 60.7 nM
- IC50 [1]: 3.2 nM

Structure (SMILES): O=C1CC2c3c(cccc31)CCN2C(=O)c1cc(Cc2n[nH]c(=O)c3ccccc23)ccc1F (stereo unspecified)
- IC50 [10]: 3.46 nM
- CC50 [11]: 4.53 nM

Structure (SMILES): O=C1NCC2c3c(cccc31)CCN2C(=O)c1cc(Cc2n[nH]c(=O)c3ccccc23)ccc1F (stereo unspecified)
- CC50 [11]: 96 nM

Structure (SMILES): CC1CN(C(=O)c2cc(Cc3n[nH]c(=O)c4ccccc34)ccc2F)Cc2nnc(CO)n21 (stereo unspecified)
- IC50 [1]: 9.2 nM

Structure (SMILES): CC1CN(C(=O)c2cc(Cc3n[nH]c(=O)c4ccccc34)ccc2F)Cc2nnc(CCl)n21 (stereo unspecified)
- IC50 (MDA-MB-436): 2.7 nM
- IC50 [1]: < 0.3 nM

Structure (SMILES): CC1CN(C(=O)c2cc(Cc3n[nH]c(=O)c4ccccc34)ccc2F)Cc2nnc(-c3cccs3)n21 (stereo unspecified)
- IC50 [3]: 730 nM
- Ratio IC50 [4]: 112
- Ratio IC50 [5]: 717
- IC50 [6]: 3290 nM
- IC50 (MDA-MB-436): 1.1 nM
- IC50 [9]: 4100 nM
- Ratio IC50 [7]: 507
- IC50 [1]: 0.7 nM
- IC50 [8]: 4660 nM

Structure (SMILES): CC1CN(C(=O)c2cc(Cc3n[nH]c(=O)c4ccccc34)ccc2F)Cc2nnc(-c3cncs3)n21 (stereo unspecified)
- IC50 (CAPAN-1 [2]): 21.6 nM
- IC50 [1]: 5.8 nM

Structure (SMILES): CC1CN(C(=O)c2cc(Cc3n[nH]c(=O)c4ccccc34)ccc2F)Cc2nnc(C(F)(F)F)n21 (stereo unspecified)
- IC50 [3]: 20 nM
- IC50 [6]: 20 nM
- IC50 (MDA-MB-436): 1.3 nM
- CC50 [11]: 42 nM
- IC50 [8]: 20 nM

Structure (SMILES): CC1CN(C(=O)c2cc(Cc3n[nH]c(=O)c4ccccc34)ccc2F)Cc2nnc(C(F)(F)Cl)n21 (stereo unspecified)
- IC50 (MDA-MB-436): 0.3 nM
- IC50 (CAPAN-1 [2]): 3.4 nM
- IC50 [1]: 3.4 nM

Structure (SMILES): COc1ccc2c(c1)C(C)N(C(=O)c1cc(Cc3n[nH]c(=O)c4ccccc34)ccc1F)CC2 (stereo unspecified)
- IC50 [1]: 108 nM

Structure (SMILES): O=C(c1cc(Cc2n[nH]c(=O)c3ccccc23)ccc1F)N1CCc2ccccc2C1C1CC1 (stereo unspecified)
- IC50 [1]: 182 nM

Structure (SMILES): O=C(c1cc(Cc2n[nH]c(=O)c3ccccc23)ccc1F)N1CCN(C(=O)C2CC2)CC1 [OLAPARIB]
- IC50 [3]: 11500 nM
- Activity (CAPAN-1 [12]): 16.2%
- IC50 [6]: 27600 nM
- Activity [13]: 11.5%
- IC50 (MDA-MB-436): 43.2 nM
- Activity (CAPAN-1 [14]): 4.5%
- Activity [15]: 4.02%
- IC50 [8]: 40 nM

Structure (SMILES): CC1CN(C(=O)c2cc(Cc3n[nH]c(=O)c4ccccc34)ccc2F)Cc2nnc(-c3cnn(C)c3)n21 (stereo unspecified)
- IC50 (MDA-MB-436): 21.1 nM
- IC50 (CAPAN-1 [2]): 218 nM
- IC50 [1]: 2.8 nM

Source: ChEMBL document CHEMBL5625224, “Identification of [1,2,4]Triazolo[4,3-a]pyrazine PARP1 inhibitors with overcome acquired resistance activities” (Eur J Med Chem, 2023)
